According to patent US11524080B2 (priority 2018, dated 2022):
In brackets after ≈: the same amount, converted by molar mass. Read-outs that look alike come from different tables or passages of the source.

Columns and labels:
[1] = mouse, in vivo
[2] = mouse, in vivo, po
B. pseudomallei K96243 = assay: microbe, parasite or virus in culture; assay type: cell-based; details: Burkholderia pseudomallei
F. tularensis SCHU-S4 [3] = assay: microbe, parasite or virus in culture; assay type: cell-based; details: Francisella tularensis, SCHUS4
F. tularensis SCHU-S4 [4] = assay: microbe, parasite or virus in culture; assay type: cell-based; details: Francisella tularensis, SCHUS4; remark: listed apart in the source
[5] = mouse, in vivo, 50 mg/kg
in vivo = details: female, Balb/c, mouse

| Structure (SMILES) | Effect on body weight [1] | Mean weight gain on Day 36 [2] [%] | Mean weight loss of starting weight by Day 8 [2] [%] | MBC (B. pseudomallei K96243) [µg/mL] | MIC (F. tularensis SCHU-S4 [3]) [µg/mL] | MBC (F. tularensis SCHU-S4 [4]) [µg/mL] | Necropsy findings ([1]; ip) | Necropsy findings ([1]; po) | AUC ([5]; ip) [µg/mL/h] | Tmax ([5]; ip) [min] | AUC ([5]; po) [µg/mL/h] | Tmax ([5]; po) [min] | Cmax (in vivo; ip, 50 mg/kg) [ng/mL] | Cmax (in vivo; ip, 100 mg/kg) [ng/mL] | Cmax (in vivo; po, 50 mg/kg) [ng/mL] |
| --- | --- | --- | --- | --- | --- | --- | --- | --- | --- | --- | --- | --- | --- | --- | --- |
| O=C(O)c1cn(C2CC2)c2cc(N3CCNCC3)c(F)cc2c1=O [Free ciprofloxacin, ciprofloxacin] | significantly induced weight loss | 2.4 | 4.4 | 16 (≈ 48.3 µM) | – | – | – | – | – | – | – | – | – | – | – |
| C[C@H]1c2cccc(O)c2C(=O)C2=C(O)[C@]3(O)C(=O)C(C(N)=O)=C(O)[C@@H](N(C)C)[C@@H]3[C@@H](O)[C@@H]21 [Free doxycycline, doxycycline hyclate] | strong indication for doxycycline-based weight loss | 1.7 | 5.2 | – | 0.5 (≈ 1.13 µM) | > 64 | peritoneal adhesions involving spleen, pancreas, intestines and kidney | two mice had slightly rounded edges to the lobes of the liver | – | – | – | – | – | – | – |
| C[C@H]1COc2c(N3CCN(C)CC3)c(F)cc3c(=O)c(C(=O)O)cn1c23 [Free levofloxacin, levofloxacin] | minimal | 3.2 | 3.3 | – | – | – | – | – | 122.1861 | 18 | 119.6124 | 36 | 50200 | 2100 | 46100 |
